From patent US4282363A, “1-Nitro-2-(2-alkynylamino)-2-[(2-pyridylmethylthio)-ethylamino]ethylene derivatives” (Bristol-Myers Company, priority 1980, dated 1981)
Where two headings read alike, the source gives them in different places. Blank lines part the entries; values can stand above or below the compound they belong to.

How the values were obtained:
histamine H2 -receptor = target: T1, histamine H2 -receptor (Cavia porcellus, UniProt P47747); assay: Histamine H2-receptor antagonism, isolated guinea pig right atria assay (displacement of histamine concentration-response curve of atrial rate); parameters: species or system guinea pig (male Hartley); conditions: for Histamine ED50 With 95% Confidence Limits (after test compound): histamine ED50 in presence of test compound 3 × 10^-5 M, 30 minute incubation; for Concentration-Response Curve Displacement Factor: test compound 3 × 10^-5 M, displacement of histamine curve to the right
T1 construct: The spontaneously beating right atrium was dissected free from other tissues; from tissue; host or cells: isolated, spontaneously beating right atrium of male Hartley guinea pigs
Description: Subsequent investigations by Hughes and Coret, Proc. Soc. […] Black et al., Agents and Actions, 3, 133 (1973) and Brimblecombe et al., Fed. […] The present comparative studies were carried out using a modification of the procedure reported by Reinhardt et al., Agents and Actions, 4, 217 (1974).
Male Hartley strain guinea pigs (350-450 gm.) were sacrificed by a blow on the head. The heart was excised and placed in a Petri dish of oxygenated (95% O2, 5% CO2) modified Krebs solution (g./liter: NaCl 6.6, KCl 0.35, MgSO4.7H2 O 0.295, KH2 PO4 0.162, CaCl2 0.238, NaHCO3 2.1 and dextrose 2.09). The spontaneously beating right atrium was dissected free from other tissues and a silk thread (4-0) attached to each end. The atrium was suspended in a 20 ml. muscle chamber containing oxygenated modified Krebs solution maintained at 32° C. Atrial contractions were recorded isometrically be means of a Grass FT 0.03 force displacement transducer and recordings of contractile force and rate were made with Beckman RP Dynograph.
A resting tension of 1 g. was applied to the atrium and it was allowed to equilibrate for 1 hour.
Concentration-response curve displacement factors were calculated as follows: [formula] […] [formula]

histamine H2 -receptors = conditions: isolated right atria, cited from earlier work
[1] = clinical use; cited from earlier work
H2 -receptors = conditions: compared with other H2 antagonists; cited from earlier work
gastric secretion [2] = conditions: man, cited from earlier work
gastric secretion [3] = conditions: animals; cited from earlier work
peptic ulcer disease = conditions: cited from earlier work
[4] = 200-300 mg. tablets, multi daily doses; cited from earlier work

T1 sequence (P47747 whole entry): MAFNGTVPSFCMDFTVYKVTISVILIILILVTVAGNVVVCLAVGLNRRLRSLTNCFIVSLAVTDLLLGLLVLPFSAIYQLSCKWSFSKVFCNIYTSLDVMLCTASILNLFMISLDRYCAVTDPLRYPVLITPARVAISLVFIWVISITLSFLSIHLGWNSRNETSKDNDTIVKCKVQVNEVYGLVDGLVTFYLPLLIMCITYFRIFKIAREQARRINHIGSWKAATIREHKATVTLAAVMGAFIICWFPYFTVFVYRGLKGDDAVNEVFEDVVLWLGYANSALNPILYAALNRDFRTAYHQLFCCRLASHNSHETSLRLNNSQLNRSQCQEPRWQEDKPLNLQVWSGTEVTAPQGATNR

SMILES: NCCc1c[nH]cn1 [Histamine, histamine]
histamine concentration giving maximal response (histamine H2 -receptor; final molar bath concentration, increase in atrial rate): 30 µM | effect on contractile rate (histamine H2 -receptors; agonist): concentration-related increases in the contractile rate

SMILES: CNC(=S)NCCSCc1[nH]cnc1C [Metiamide]
toxicity (agranulocytosis) [1]: toxicity (agranulocytosis) | H2 antagonist potency, comparison in words (H2 -receptors): more potent than burimamide | oral activity (gastric secretion [2]; oral): orally active in man

SMILES: CNC(=S)NCCCCc1c[nH]cn1 [Burimamide]
antagonism of H2-receptors (histamine H2 -receptors): competitive antagonist | inhibition of gastric secretion (gastric secretion [3]): inhibits gastric secretion | inhibition of gastric secretion (gastric secretion [2]): inhibits gastric secretion | clinical effectiveness as H2 -receptor antagonist (peptic ulcer disease; in vivo): first clinically effective H2 -receptor antagonist

Histamine ED50 With 95% Confidence Limits (after test compound) (histamine H2 -receptor): 57.92 µg/mL | Activity Ratio Relative to Cimetidine (histamine H2 -receptor; ratio of displacement factors, cimetidine = 1.0, times more potent/active than cimetidine): 8.19 | Concentration-Response Curve Displacement Factor (histamine H2 -receptor): 206.86
SMILES: C#CCNC(=NCCSCc1ncccc1Cl)NC#N [BL-6083, N-Cyano-N'-(2-propyn-1-yl)-N"-{2-[(3-chloro-2-pyridyl)-methylthio]ethyl}guanidine]

SMILES: CNC(=NC#N)NCCSCc1[nH]cnc1C [Cimetidine]
Histamine ED50 With 95% Confidence Limits (after test compound) (histamine H2 -receptor): 4.80 µg/mL | toxicity (agranulocytosis) [1]: without producing agranulocytosis | H2 antagonist potency, comparison in words (H2 -receptors): as effective an H2 antagonist as metiamide | half-life [4]: relatively short | therapeutic effectiveness in peptic ulcer disease (peptic ulcer disease; clinical evaluation): effective therapeutic agent in the treatment of peptic ulcer disease

Histamine ED50 With 95% Confidence Limits (after test compound) (histamine H2 -receptor): 20.97 µg/mL | Concentration-Response Curve Displacement Factor (histamine H2 -receptor): 52.77
SMILES: C#CCNC(=C[N+](=O)[O-])NCCSCc1ncccc1Cl [BL-6075, 1-Nitro-2-(2-propynlamino)-2-{2-[(3-chloro-2-pyridyl)-methylthio]ethylamino}ethylene]
